In test [1] the target is Calcium/calmodulin-dependent protein kinase type 1D (Homo sapiens) (UniProt Q8IU85). Briefly: Inhibition of recombinant human His-tagged full length CAMK1delta expressed in baculovirus expression system using Ser/Thr 25 as substrate at 0.1 uM incubated for 60 mins by Z'-Lyte assay relative to control.
Test [2] has as its target T1, Phosphatidylinositol 4,5-bisphosphate 3-kinase catalytic subunit delta isoform (Homo sapiens) (UniProt O00329).
T1 sequence (whole entry): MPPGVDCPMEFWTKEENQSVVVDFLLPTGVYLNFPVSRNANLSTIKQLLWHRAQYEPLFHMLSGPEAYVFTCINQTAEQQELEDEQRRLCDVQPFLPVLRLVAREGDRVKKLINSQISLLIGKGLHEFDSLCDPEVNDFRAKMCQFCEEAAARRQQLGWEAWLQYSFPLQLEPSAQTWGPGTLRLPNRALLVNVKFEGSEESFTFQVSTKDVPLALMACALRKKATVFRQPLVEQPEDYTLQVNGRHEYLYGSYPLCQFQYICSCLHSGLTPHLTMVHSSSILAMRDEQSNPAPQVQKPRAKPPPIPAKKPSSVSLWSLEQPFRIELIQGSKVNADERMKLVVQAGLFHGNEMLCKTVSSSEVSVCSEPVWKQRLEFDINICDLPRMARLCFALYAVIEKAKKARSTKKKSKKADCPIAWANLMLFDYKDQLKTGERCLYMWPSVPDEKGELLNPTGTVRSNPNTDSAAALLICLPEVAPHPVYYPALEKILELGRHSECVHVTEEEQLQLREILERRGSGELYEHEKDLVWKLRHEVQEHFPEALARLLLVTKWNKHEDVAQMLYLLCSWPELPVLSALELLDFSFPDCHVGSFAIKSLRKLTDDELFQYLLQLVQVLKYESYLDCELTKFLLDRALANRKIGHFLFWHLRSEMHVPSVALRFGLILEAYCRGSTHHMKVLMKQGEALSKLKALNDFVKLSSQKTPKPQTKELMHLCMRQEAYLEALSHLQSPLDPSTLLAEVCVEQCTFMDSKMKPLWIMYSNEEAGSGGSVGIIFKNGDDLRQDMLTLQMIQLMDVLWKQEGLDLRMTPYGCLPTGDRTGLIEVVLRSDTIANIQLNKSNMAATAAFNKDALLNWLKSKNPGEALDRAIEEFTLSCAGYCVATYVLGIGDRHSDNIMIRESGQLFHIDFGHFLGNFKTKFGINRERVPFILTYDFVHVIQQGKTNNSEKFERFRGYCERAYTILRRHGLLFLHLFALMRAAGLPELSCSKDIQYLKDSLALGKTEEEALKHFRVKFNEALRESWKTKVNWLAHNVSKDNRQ
The test is described as follows: Inhibition of recombinant human His-tagged full length PI3Kdelta expressed in baculovirus expression system using PIP:PS as substrate at 0.1 uM incubated for 60 mins by Adapta assay relative to control.

Test [3] addresses Casein kinase I isoform epsilon (Homo sapiens) (UniProt P49674). Briefly: Inhibition of recombinant human His-tagged full length CK1epsilon expressed in baculovirus expression system using Ser/Thr 11 as substrate at 0.1 uM incubated for 60 mins by Z'-Lyte assay relative to control.
The target in test [4] is Dual specificity mitogen-activated protein kinase kinase 1 (Homo sapiens) (UniProt Q02750). Briefly: Inhibition of recombinant human His-tagged full length MEK1 expressed in baculovirus expression system using Ser/Thr 03 as substrate at 0.1 uM incubated for 60 mins by Z'-lyte assay relative to control.
Test [5] has as its target T2, Mitogen-activated protein kinase kinase kinase 5 (Homo sapiens) (UniProt Q99683).
T2 sequence (whole entry): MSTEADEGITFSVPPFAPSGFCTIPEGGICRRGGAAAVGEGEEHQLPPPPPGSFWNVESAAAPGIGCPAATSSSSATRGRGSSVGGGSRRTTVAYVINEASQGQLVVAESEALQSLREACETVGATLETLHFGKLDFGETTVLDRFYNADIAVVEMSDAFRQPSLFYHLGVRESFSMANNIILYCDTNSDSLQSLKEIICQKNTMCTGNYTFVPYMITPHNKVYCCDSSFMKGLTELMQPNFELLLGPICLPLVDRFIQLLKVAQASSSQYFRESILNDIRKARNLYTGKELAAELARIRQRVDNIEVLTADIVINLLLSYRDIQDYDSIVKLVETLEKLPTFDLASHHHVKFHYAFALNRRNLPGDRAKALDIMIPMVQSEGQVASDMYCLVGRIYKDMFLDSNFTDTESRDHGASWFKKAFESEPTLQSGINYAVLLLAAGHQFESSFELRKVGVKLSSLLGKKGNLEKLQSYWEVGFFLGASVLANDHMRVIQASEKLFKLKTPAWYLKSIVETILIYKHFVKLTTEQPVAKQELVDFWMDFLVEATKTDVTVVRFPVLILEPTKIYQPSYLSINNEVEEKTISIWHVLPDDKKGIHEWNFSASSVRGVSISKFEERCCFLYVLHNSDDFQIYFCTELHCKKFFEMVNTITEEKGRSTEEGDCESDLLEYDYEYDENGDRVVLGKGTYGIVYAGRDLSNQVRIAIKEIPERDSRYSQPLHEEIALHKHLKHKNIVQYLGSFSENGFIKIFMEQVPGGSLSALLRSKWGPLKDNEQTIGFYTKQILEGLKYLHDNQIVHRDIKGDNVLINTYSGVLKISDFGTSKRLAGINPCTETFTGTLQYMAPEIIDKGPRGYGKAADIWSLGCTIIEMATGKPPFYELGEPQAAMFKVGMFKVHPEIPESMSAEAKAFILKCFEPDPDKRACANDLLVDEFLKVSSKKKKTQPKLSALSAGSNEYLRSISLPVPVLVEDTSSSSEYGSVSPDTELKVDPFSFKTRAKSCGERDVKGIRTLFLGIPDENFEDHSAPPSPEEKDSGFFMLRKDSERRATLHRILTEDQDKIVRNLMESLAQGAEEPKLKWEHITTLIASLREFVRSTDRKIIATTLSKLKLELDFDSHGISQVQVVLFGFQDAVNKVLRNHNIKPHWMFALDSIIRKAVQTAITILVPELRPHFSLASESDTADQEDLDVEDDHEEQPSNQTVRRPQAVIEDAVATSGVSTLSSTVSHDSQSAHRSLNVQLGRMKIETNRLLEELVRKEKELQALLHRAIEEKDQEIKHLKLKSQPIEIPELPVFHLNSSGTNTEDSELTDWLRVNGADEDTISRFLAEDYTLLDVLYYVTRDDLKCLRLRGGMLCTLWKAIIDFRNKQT
Briefly: Inhibition of tracer 236 binding to recombinant human GST-tagged full length ASK1 expressed in baculovirus expression system at 0.1 uM incubated for 60 mins by Lanthascreen assay relative to control.

Test [6] concerns the target Mitogen-activated protein kinase 14 (Homo sapiens) (UniProt Q16539). Briefly: Inhibition of recombinant human GST-tagged full length p38 alpha expressed in Escherichia coli expression system using Ser/Thr 15 as substrate at 0.1 uM incubated for 60 mins by Z'-Lyte assay relative to control.

The source of these data is ChEMBL document CHEMBL4665643 (Bioorg Med Chem Lett, 2019).

Sequence of Calcium/calmodulin-dependent protein kinase type 1D (Homo sapiens) (Q8IU85 whole entry, looked up, canonical isoform): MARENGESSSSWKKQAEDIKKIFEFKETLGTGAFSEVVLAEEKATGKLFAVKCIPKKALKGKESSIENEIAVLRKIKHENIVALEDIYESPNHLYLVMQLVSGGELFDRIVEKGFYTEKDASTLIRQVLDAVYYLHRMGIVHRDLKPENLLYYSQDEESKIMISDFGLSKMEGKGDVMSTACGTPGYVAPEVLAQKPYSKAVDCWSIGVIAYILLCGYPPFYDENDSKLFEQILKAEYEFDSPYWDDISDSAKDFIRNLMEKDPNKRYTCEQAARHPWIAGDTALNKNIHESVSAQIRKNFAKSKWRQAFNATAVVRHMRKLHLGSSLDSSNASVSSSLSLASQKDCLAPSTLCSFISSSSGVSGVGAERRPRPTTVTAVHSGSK
Sequence of Mitogen-activated protein kinase 14 (Homo sapiens) (Q16539 whole entry): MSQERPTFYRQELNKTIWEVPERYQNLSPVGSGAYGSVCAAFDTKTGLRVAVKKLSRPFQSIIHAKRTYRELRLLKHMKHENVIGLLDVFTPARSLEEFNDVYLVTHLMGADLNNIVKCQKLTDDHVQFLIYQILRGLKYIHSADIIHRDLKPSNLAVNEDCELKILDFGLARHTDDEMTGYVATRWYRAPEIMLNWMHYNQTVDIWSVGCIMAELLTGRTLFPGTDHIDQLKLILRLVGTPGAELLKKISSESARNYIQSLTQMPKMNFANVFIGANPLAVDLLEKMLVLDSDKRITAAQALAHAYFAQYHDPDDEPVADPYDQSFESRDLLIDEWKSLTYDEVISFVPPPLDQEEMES
Sequence of Dual specificity mitogen-activated protein kinase kinase 1 (Homo sapiens) (Q02750 whole entry): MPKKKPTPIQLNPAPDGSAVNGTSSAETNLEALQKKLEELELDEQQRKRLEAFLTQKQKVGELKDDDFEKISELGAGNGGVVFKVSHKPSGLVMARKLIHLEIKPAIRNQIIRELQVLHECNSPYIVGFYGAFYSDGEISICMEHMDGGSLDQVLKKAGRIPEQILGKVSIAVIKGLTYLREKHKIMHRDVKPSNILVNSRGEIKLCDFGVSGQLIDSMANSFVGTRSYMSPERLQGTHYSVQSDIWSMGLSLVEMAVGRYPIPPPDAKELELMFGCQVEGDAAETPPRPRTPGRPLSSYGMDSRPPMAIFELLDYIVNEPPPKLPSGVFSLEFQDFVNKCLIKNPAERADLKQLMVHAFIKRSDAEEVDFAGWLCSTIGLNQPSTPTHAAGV
Sequence of Casein kinase I isoform epsilon (Homo sapiens) (P49674 whole entry, looked up, canonical isoform): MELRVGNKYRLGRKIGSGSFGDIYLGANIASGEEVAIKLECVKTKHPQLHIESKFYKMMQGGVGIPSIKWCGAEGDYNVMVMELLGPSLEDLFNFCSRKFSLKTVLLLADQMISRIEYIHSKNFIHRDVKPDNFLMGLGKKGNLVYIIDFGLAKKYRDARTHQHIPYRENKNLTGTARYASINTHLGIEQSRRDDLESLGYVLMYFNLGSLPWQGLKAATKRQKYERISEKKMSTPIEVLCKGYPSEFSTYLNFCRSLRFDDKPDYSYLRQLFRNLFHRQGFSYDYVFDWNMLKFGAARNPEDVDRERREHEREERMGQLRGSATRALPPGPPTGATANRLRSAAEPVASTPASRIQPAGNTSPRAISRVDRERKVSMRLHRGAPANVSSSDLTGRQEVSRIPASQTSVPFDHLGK

On to `Cn1cc(NC(=O)c2cnn3cccnc23)c(-c2cc(Cl)ccc2OC(F)F)n1`, for which the inhibition is 6% in test [1]; 6% in test [2]; -1% in test [3]; 0% in test [4]; 2% in test [5]; 7% in test [6].

With `O=C(Nc1c[nH]nc1-c1cc2ccccc2cc1OC(F)F)c1cnn2cccnc12`, the inhibition in test [1] is 15%; in test [2] it was 6%; in test [3], 6%; in test [4] it was 0%; in test [5] it was -2%; in test [6] it was 2%.

Consider `O=C(Nc1c[nH]nc1-c1cc(Cl)ccc1OC(F)F)c1cnn2cccnc12`, for which the inhibition was 8% in test [1]; 7% in test [2]; 5% in test [3]; -8% in test [4]; 4% in test [5]; -4% in test [6].

As usually defined, the inhibition is the relative decrease from the control value, in per cent.
